# Measured values reported in patent publication US6995262B1, “Use of acylsulfonamido-substituted polymethine dyes as fluorescene dyes and/or markers” (Bayer CropScience AG, priority 1999, dated 2006).
# Marks after values point to notes of the source that are not given here.
# What was measured:
# Assay type in all cases: physicochemical
# [1] = Relative quantum yield of dye-protein conjugates, determined relative to Cy5; conditions: protein conjugates at similar molar dye/protein ratios, protein HSA
# Experimental: The protein used was HSA (Human Serum Albumin).
# Determination of the Quantum Yield
# The quantum yield was determined relative to Cy5
# For labeling, the crude product (1 aliquot) is dissolved in 1 ml of DMF. 50 μl of this solution are pipetted to 1.5 mL (=1 mg) of anti-HSA solution in carbonate buffer pH 9.2. The reaction solution is stirred at RT under the exclusion of light for 2 hours.
# Using gel permeation chromatography over a Sephadex G25 column, the conjugate is then separated from unbound dye. The elution buffer used is PBS, pH 7.4.
# Protein conjugates of other dyes, which are listed in Table 1, were prepared in an analogous manner.
# [2] = Aggregate formation: ratio of absorption maxima of monomer and aggregate at increasing salt concentration; conditions: for characteristics with respect to aggregate formation: with increasing salt concentration
# Source text: The intensity of the absorption in the absorption maximum of the monomer is a relative measure for the concentration of the monomer in the solution, the same also applies to the concentration of the aggregate, this can be correlated to the intensity of the absorption in the absorption maximum of the aggregate, which is shifted hypsochronically compared to the monomer. […] The increasing salt concentration causes an aggregate formation.
# [3] = Extinction coefficient determined assuming Beer's law; conditions: Beer's law assumed
# Experimental: Determination of the Extinction Coefficient The extinction coefficient was determined assuming that Beer's law applies.
# [4] = Photostability: dye solutions exposed to daylight, reduction of absorption over time; conditions: after 30 min, starting absorption 1.4 to 1.6 O.D.
# Experimental: The photostability was determined by exposing dye solutions to daylight. The absorption of the solutions varied between 1.4 and 1.6 O.D. The reduction of the absorption over time is a measure for the photostability of the dyes. These conditions were chosen since the handling of the dyes, too, includes manual process steps during which the dyes are exposed to daylight. In the case of CY5, it is clearly noticeable that, even after 30 min, the absorption has decreased by 12%. This is not the case for the dyes according to the invention, and the latter are thus also more user-friendly, by maintaining a stable absorption.
Absorption monomer/absorption dimer ([2]; 2.0 M NaCl),Absorption monomer/absorption dimer ([2]; 3.8 M NaCl),Absorption monomer/absorption dimer ([2]; Water),decrease of absorption [4] [%],"aggregate formation compared to CY5 ([2]; in words, from Table 2)",Compound,rel. Q.Y. [1],characteristics with respect to aggregate formation ([2]; in words),Extinction coefficient [3]
3.18,3.19,3.12,12,–,"CCN1/C(=C/C=C/C=C/C2=[N+](CCCCCC(=O)O)c3ccc(S(=O)(=O)O)cc3C2(C)C)C(C)(C)c2cc(S(=O)(=O)[O-])ccc21 [CY5, reference compound]",–,–,–
4.35,4.40,4.40,–,considerably lower aggregate formation,CC1(C)C(/C=C2\C(=O)C(/C=C3/N(CCCCCC(=O)O)c4ccc(S(=O)(=O)[O-])cc4C3(C)C)=C2O)=[N+](CC(=O)NS(C)(=O)=O)c2ccc(S(=O)(=O)O)cc21 [J],1.36,stable characteristics,240 000 mol-1*cm^2*

Compound,Absorption monomer/absorption dimer ([2]; 2.0 M NaCl),Absorption monomer/absorption dimer ([2]; 3.8 M NaCl),Absorption monomer/absorption dimer ([2]; Water),decrease of absorption [4] [%],"aggregate formation compared to CY5 ([2]; in words, from Table 2)",rel. Q.Y. [1],characteristics with respect to aggregate formation ([2]; in words),Extinction coefficient [3]
CC1(C)C(/C=C2\C(=O)C(/C=C3/N(CCCCCC(=O)O)c4ccccc4C3(C)C)=C2O)=[N+](CC(=O)NS(C)(=O)=O)c2ccc(S(=O)(=O)[O-])cc21 [F],2.81,2.81,2.89,–,–,1.35,stable characteristics,420 000 mol-1*cm^2*
